From patent US12534441B2, “Tryptamine analogues” (priority 2021, dated 2026)

How the values were obtained:
[1] = test system: serotonin (1a, 1b, 2a, 2c and 7 receptors); assay: Serotonin receptor cAMP assay (Multispan, HTRF); assay type: cell-based, Human; details: percentage relative response vs 10 μM forskolin; serotonin control; FIG. 1
Protocol: Compounds 005, 008 and 018 were assayed using a serotonin (1a, 1b, 2a, 2c and 7 receptors) cAMP assay, provided by Multispan. The reference used was 10 μM forskolin (a cAMP activator) to calculate the percentage relative response, serotonin was used as the control. The results can be seen in FIG. 1.
cAMP Gs dynamic kit—cisbio—cat. No. 62AM4PEC
MULTISCREEN™ HEK293T Cell Line Stably Expressing Human 5-HT1A Receptor, Catalog DC1319a
MULTISCREEN™ HEK293T Cell Line Stably Expressing Human 5-HT1B Receptor, Catalog DC1320a
(§1) MULTISCREEN™ CHO-K1 Cell Line Stably Expressing Human 5-HT2A Receptor, Catalog DC1324-1
(§2) MULTISCREEN™ CHO-K1 Cell Line Stably Expressing Human 5-HT2C Receptor, Catalog DC1326-1
MULTISCREEN™ HEK293T Cell Line Stably Expressing Human 5-HT7 Receptor, Catalog DC1334

[2] = test system: serotonin (2a, 2b and 2c receptors); assay: Serotonin receptor inositol phosphate 1 (IP1) assay (Multispan); assay type: cell-based, Human; details: percentage relative response vs 1 μM serotonin; FIG. 2
Protocol: Compounds 005, 008 and 018 were assayed using a serotonin (2a, 2b and 2c receptors) inositol phosphate 1 (IP1) assay, provided by Multispan. The reference used was 1 μM serotonin to calculate the percentage relative response. The results can be seen in FIG. 2.
IP-One Gq kit—cisbio—cat. No. 62IPAPEB
as §1
MULTISCREEN™ CHO-K1 Cell Line Stably Expressing Human 5-HT2B Receptor, Catalog DC1325-1
as §2

5-HT2C Receptor = target: T1, 5-HT2C Receptor (Homo sapiens, UniProt P28335); assay: Serotonin calcium (Ca2+) assay, 2c receptor; assay type: cell-based; details: percentage relative response vs 10 μM serotonin, RLU; FIG. 3
T1 construct: host or cells: CHO-K1
T1 sequence (P28335 33-458): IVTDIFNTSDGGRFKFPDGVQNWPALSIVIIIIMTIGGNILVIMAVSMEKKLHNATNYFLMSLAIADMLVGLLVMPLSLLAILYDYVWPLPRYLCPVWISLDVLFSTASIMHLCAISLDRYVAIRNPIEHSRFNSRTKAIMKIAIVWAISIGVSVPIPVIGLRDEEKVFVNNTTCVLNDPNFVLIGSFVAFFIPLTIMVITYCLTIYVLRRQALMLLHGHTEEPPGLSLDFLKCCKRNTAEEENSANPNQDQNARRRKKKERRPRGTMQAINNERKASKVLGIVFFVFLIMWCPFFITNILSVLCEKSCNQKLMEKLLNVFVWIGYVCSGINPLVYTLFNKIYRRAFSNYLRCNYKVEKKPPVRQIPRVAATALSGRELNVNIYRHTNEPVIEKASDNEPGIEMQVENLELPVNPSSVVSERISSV
Protocol: Compounds 005, 008 and 018 were assayed using a serotonin (2a, 2b and 2c receptors) calcium (Ca^2+) assay, provided by Multispan. The reference used was 10 μM serotonin to calculate the percentage relative response in relative light units (RLU). The results can be seen in FIG. 3. Some activity for compound 005 in the 2c receptor assay was detected.
FLIPR calcium 6 assay explorer kit—VWR—cat. No. MLDVR8190
as §2

HTR2A = target: T2, HTR2A (Homo sapiens, UniProt P28223); assay: B-arrestin assay (DiscoverX PathHunter), 2a receptor; assay type: cell-based; details: percentage relative response vs 10 μM serotonin; FIG. 4
T2 construct: host or cells: U2OS
T2 sequence (P28223 whole entry): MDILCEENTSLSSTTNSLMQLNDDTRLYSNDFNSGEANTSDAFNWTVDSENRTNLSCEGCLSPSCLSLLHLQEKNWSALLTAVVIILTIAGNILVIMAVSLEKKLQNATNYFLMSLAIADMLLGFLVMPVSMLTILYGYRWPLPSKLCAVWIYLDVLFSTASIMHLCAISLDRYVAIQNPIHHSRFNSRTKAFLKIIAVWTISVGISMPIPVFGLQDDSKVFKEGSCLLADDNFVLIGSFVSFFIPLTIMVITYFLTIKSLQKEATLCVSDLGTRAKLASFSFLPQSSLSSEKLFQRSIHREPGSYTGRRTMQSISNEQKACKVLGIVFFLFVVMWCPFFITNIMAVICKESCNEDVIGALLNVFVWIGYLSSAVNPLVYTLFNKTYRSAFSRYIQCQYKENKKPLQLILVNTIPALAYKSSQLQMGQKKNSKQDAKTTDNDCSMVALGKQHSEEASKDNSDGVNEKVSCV
Protocol: (§3) Compounds 005, 008 and 018 were assayed using a serotonin (1a, 1b, 2a and 2c receptors) B-arrestin assay, provided by DiscoverX. The reference used was 10 μM serotonin to calculate the percentage relative response. The results can be seen in FIG. 4. […] The compounds were also assayed in a serotonin 2b receptor B-arrestin assay, the results of which can be seen in FIG. 5.
HTR2A PathHunter® eXpress HTR2A U2OS β-Arrestin GPCR Assay 93-0401E3CP19M 200 dp (2×96-well)

HTR2C = target: T3, HTR2C (Homo sapiens, UniProt P28335); assay: B-arrestin assay (DiscoverX PathHunter), 2c receptor; assay type: cell-based; details: percentage relative response vs 10 μM serotonin; FIG. 4
T3 construct: host or cells: U2OS
T3 sequence (P28335 33-458): T1 sequence (P28335 33-458)
Protocol: as §3
HTR2C PathHunter® eXpress HTR2C U2OS β-Arrestin GPCR Assay 93-0289E3CP3M 200 dp (2×96-well)

SMILES	cAMP assay result (activation of the cAMP pathway) [1]	IP1 assay result (response curves) [2]	Ca2+ assay activity, 2c receptor (5-HT2C Receptor)	B-arrestin assay activity, 2a receptor (HTR2A)	B-arrestin assay activity, 2c receptor (HTR2C)
CCN(C)CCc1c[nH]c2cccc(OC(=O)Nc3ccccc3)c12 [Compound 005, (S)-ethyl(methyl)(2-{4-[(phenylcarbam-oyl)oxy]-1H-indol-3-yl}ethyl)azanium]	may have some activation of the cAMP pathway	incomplete response curves in this assay, showing agonistic activity	Some activity	Some activity	appeared to have activity
CCN(C)CCc1c[nH]c2cccc(Oc3ccccn3)c12 [Compound 008, (S)-ethyl(methyl){2-[4-(pyridin-2-yloxy)-1H-indol-3-ylethyl}-azanium]		incomplete response curves in this assay, showing agonistic activity		Some activity	
CC(C)N(C)[C@H](C)Cc1c[nH]c2ccccc12 [Compound 018, (R)-[(2R)-1-(1H-indol-3-yl)propan-2-yl](methyl)(propan-2-yl)azanium]		incomplete response curves in this assay, showing agonistic activity		Some activity	
